Activity calls are given as the source filed them. No cut-off for these calls is given here.
Assays:
[1] = target: Sodium-dependent serotonin transporter (Homo sapiens, UniProt P31645); assay: Binding affinity at human SERT
[2] = target: Sodium-dependent serotonin transporter (Rattus norvegicus, UniProt P31652); assay: Binding affinity at rat SERT
[3] = target: Histamine H3 receptor (Homo sapiens, UniProt Q9Y5N1); assay: Antagonistic activity at H3 receptor expressed in […] cells assessed as forskolin stimulated cyclic AMP accumulation by functional assay; assay type: cell-based, SK-N-MC; conditions: read-out: pA2 (converted)
[4] = tested on: Mus musculus; assay: Effect on 5HTP induced mouse head twitch model at 10 mg/kg after 24 hrs; assay type: functional
[5] = tested on: Mus musculus; assay: Effect on 5HTP induced mouse head twitch model at 10 mg/kg after 1 hr; assay type: functional, organism-based; set-up: dose 10 mg/kg

Sodium-dependent serotonin transporter (Homo sapiens, UniProt P31645), sequence (P31645 whole entry): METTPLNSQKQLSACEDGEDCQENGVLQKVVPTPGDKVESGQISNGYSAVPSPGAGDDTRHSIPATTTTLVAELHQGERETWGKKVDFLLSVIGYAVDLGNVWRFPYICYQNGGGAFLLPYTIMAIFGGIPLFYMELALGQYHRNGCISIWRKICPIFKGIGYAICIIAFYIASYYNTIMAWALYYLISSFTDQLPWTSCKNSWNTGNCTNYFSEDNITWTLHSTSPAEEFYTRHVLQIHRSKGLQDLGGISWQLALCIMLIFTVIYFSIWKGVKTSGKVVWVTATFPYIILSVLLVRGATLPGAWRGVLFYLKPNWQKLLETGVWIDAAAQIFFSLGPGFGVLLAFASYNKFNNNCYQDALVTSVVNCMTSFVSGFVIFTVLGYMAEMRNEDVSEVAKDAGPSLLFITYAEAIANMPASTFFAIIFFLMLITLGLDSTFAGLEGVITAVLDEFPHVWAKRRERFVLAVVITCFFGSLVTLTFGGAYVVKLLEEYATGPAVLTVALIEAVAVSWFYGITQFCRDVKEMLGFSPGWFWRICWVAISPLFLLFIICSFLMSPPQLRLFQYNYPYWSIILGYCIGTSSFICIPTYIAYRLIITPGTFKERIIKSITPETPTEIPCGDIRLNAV
Sodium-dependent serotonin transporter (Rattus norvegicus, UniProt P31652), sequence (P31652 whole entry): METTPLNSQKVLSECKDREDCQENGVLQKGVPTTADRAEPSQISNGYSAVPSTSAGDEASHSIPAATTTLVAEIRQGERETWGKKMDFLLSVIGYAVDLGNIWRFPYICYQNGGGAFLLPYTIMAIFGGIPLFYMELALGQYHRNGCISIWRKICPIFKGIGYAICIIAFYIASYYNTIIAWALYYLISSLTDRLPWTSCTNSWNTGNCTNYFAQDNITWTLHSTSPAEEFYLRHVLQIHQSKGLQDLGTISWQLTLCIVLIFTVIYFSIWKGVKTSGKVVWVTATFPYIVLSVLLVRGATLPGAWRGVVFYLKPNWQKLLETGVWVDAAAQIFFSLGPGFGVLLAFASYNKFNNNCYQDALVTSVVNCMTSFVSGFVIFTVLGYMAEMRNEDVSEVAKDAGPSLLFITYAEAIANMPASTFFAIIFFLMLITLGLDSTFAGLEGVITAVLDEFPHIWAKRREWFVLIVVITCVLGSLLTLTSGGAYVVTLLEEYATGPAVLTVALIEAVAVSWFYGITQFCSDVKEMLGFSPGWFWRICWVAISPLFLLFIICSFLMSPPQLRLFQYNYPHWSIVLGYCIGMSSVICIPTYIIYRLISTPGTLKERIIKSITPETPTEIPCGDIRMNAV
Histamine H3 receptor, sequence (Q9Y5N1 whole entry): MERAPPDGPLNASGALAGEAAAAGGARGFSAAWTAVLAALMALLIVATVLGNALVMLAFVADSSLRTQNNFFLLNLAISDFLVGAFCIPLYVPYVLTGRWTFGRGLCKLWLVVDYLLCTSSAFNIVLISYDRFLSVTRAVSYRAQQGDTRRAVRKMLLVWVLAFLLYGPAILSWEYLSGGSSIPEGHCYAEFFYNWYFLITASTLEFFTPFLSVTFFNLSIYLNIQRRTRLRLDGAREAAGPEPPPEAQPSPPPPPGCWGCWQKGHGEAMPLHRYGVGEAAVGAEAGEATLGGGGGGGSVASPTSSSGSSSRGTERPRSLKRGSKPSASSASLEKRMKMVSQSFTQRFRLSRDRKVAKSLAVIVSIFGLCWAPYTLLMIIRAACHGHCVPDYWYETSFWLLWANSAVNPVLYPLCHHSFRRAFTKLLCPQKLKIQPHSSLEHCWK

Ki [1] [µM] | Ki [2] [µM] | Kb [3] [µM] | SMILES | Activity [4] [%] | Activity [5]
0.0155 | 0.014 | – | CSc1ccc(C2CN(C)Cc3cc(Oc4nc(CN5CCOCC5)cs4)ccc32)cc1 (centres undefined) | – | –
0.0083 | 0.0097 | – | CSc1ccc(C2CN(C)Cc3cc(Oc4cncc(CN5CCCCC5)c4)ccc32)cc1 (centres undefined) | – | –
– | – | 0.02 | CSc1ccc(C2CN(C)Cc3cc(Oc4nc(CN5CCCCC5)cs4)ccc32)cc1 (centres undefined) | – | –
– | – | 0.02 | CSc1ccc(C2CN(C)Cc3cc(Oc4ccc(CN5CCCCC5)cn4)ccc32)cc1 (centres undefined) | 272 | inactive

SMILES | Ki [1] [µM] | Ki [2] [µM] | Kb [3] [µM] | Activity [4] [%] | Activity [5]
CN(C)CCC(Oc1ccccc1)c1ccc(OCCCN2CCCCC2)cc1 (centres undefined) | 0.0257 | – | – | – | –

From ChEMBL document CHEMBL1137450, “Dual serotonin transporter inhibitor/histamine H3 antagonists: development of rigidified H3 pharmacophores” (Bioorg Med Chem Lett, 2007)
